We go through three molecules from patent US6083941A, “Inhibition of NMDA receptor activity by pregnenolone sulfate derivatives” (Trustees of Boston University, priority 1998, dated 2000).

SMILES strings stand for the structures. Where “and” joins values, the source holds several entries; their conditions need not be identical. Identical values can stand only once. Counter-ions that a name gives are not always drawn.

Assay [1] concerns NMDA receptor. The following applies: Wu et al. 1991, cited from earlier work.
The next assay deals with AMPA receptors. Put plainly: Whole cell patch clamp, AMPA-induced current in cultured chick spinal cord neurons. Format: cell-based. The conditions noted are these: 100 μM steroid; -70 mV; sulfate. As for the experimental part: (§1) Cultures of dissociated spinal cord neurons were prepared as previously described (Farb, D. H., et al., J. Cell Biol., 80:651-661 (1979)). Briefly, the dissociated cells from 7-day chick embryos were plated on collagen-coated 35-mm tissue culture dishes in Eagle's minimum essential medium supplemented with 2.4 mM glutamine, 10% (v/v) heat-inactivated horse serum, 5% (v/v) chick embryo extract and antibiotics. Cultures were maintained in a humidified atmosphere of 5% CO2, 95% air at 37°. Cytarabine (1 μM) was added to the culture medium after 36 hr. of the initial plating to inhibit the proliferation of non-neuronal cells. One day later, this medium was replaced with a similar medium supplemented with 20.5 mM glucose, 19 mM KCl, and 2.5% chick embryo extract. Fresh medium was added twice weekly. Cultured neurons were used in experiments within 2-4 weeks after plating.
(§2) Experiments were carried out in 35-mm tissue culture dishes on the stage of an inverted phase contrast microscope. Whole cell currents were recorded by the whole cell variant of the patch clamp technique (Hamill, O. P., et al., Pfagers Arch. 891:85-100 (1981)). Patch electrodes had tip openings of about […] and resistances of 3-8 M.OMEGA. using an intracellular solution comprised of the following (in mM): 140 CsCl, 11 EGTA, and 10 HEPES (pH adjusted to 7.2 with CsOH). […]

The subject of the next assay is kainate receptors. The assay is described as follows: Whole cell patch clamp, kainate-induced current in cultured chick spinal cord neurons. Format: cell-based. The conditions noted are these: 100 μM steroid; -70 mV; sulfate. The method, then:
as §1, §2

Assay [2] concerns NMDA receptor. The assay is described as follows: Electrophysiology, NMDA response in rat hippocampal neurons. Format: cell-based. The following applies: FIG. 4; average of 6 experiments. The method, then:
as §2, with “CsOH). In experiments in which a high concentration of glycine was used, the intracellular solution was replaced with a low chloride (10 mM) pipette solution. This solution contained the following (in mM): 140 potassium gluconate, 10 KCl, 8 sodium gluconate, 11 EGTA, and 10 HEPES (pH adjusted to 7.2 with KOH).” for “CsOH).”
The degree of modulation of the amino acid response by steroid, the percentage change, is expressed as [(I'/I)-1]×100%, where I is the average of control responses obtained from the same cell before application and after washout of steroid and I' is the agonist-induced current in the presence of steroid. Throughout, results are expressed as mean±S.E.; statistical comparison of groups was carried out using Student's t test.
The electrophysiology of additional pregnenolone derivatives were analyzed as described in Example 1. […]

The subject of assay [3] is formalin pain in the mouse. Put plainly: Formalin paw lick analgesic test. The following applies: mice, i.p., 15 mg/kg. Format: in vivo. As for the experimental part: Male CD-1 mice (Charles River laboratories, Wilmington, Mass.) weighing 20-25 g were used for the formalin test. Mice were injected intraperitoneally with the test compound dissolved in DMSO or with vehicle. Five minutes later 20 μl of 1% formalin was injected into the hind paw of each mouse. The time spent licking the injected paw was monitored for 25 minutes. The early phase of response was between 0-5 minutes and the late phase response was defined as the response between 5-25 minutes.

Usually EC50 stands for the concentration giving half of the maximal effect. Turning to `CC(=O)C1CCC2C3CC=C4CC(OS(=O)(=O)O)CCC4(C)C3CCC12C` (stereo not shown) [PS, pregnenolone sulfate], the “potentiation of the NMDA response” value with NMDA receptor [1] is reported as 197%. Further, at NMDA receptor [1] (read-out: EC50 for potentiation of the NMDA response), the EC50 was 57 µM.

Consider `CC(=O)[C@H]1CC[C@H]2[C@@H]3CC[C@@H]4C[C@H](OS(=O)(=O)O)CC[C@]4(C)[C@H]3CC[C@]12C` [5β3αS, 3α-hydroxy-5β-pregnan-20-one sulfate], for which the “inhibition of the 25 μM AMPA-induced current” value with AMPA receptors is 29% and 29.0±3.1%. Further, the “inhibition of the 50 μM kainate-induced current” value in the assay on kainate receptors was 37% and 37.4±4.7%.

As for `CC(=O)[C@H]1CC[C@H]2[C@@H]3CC[C@@H]4C[C@H](OC(=O)CCC(=O)O)CC[C@]4(C)[C@H]3CC[C@]12C` [5β3αHS, 3α-hydroxy-5β-pregnan-20-one hemisuccinate], in the assay on NMDA receptor [2], the “% inhibition of NMDA response in rat hippocampal cells” value is recorded as “approximately 20%”. In addition, the “early phase response, formalin paw lick” value in assay [3] (0-5 minutes) was “no effect on the early response”. Also, the “late phase response, formalin paw lick” value in assay [3] (5-25 minutes) was “effective in blocking the late phase response”.
